Test results from patent US6214805A, “RNase L activators and antisense oligonucleotides effective to treat RSV infections” (priority 1997, dated 2001).
Values joined by “and” are separate entries in the source; they are usually repeats but may differ in a detail not shown here. Equal values may be shown once.

Experiments:
[1] = test system: RSV strain A2; test: Inhibition of RSV replication in RSV-infected 9HTE cells, virus plaque assay on CV-1 cells at 36 h post-infection; format: cell-based, Respiratory syncytial virus; conditions: 9HTE cells; for % Inhibition of RSV replication: M.O.I. 2.0, 36 hrs post-infection
Source text: To develop 2-5A antisense chimeras with the potential to block RSV replication, an oligonucleotide binding site in the viral RNA polymerase (RSV L) mRNA, which encodes a low abundance message that is absolutely required for RSV replication was selected. The first chimera synthesized and evaluated was pA4 -antiRSV/(8490-8509). The binding sites for the chimeric oligonucleotide's antisense domain are to the transcripts of nucleotides 8490-8509 in the RSV genome, which spans the translation start codon for the L protein, and to nucleotides 8490-8509 of the antigenomic strand (the template for reproduction of the genome). Since to function as an effective treatment, a candidate agent must be able to inhibit viral replication subsequent to diagnosis, the anti-RSV effect of the 2-5A antisense chimera was determined on human tracheal epithelial cells, 9HTE, with treatments beginning either 4 h before RSV infection (pre-/post-infection treatments) or 2 h following infection (post-infection treatments). In the post-infection treatments, pA4 -antiRSV/([…]), was added at t+2, t+14 and t+26, (numbers represent time in h relative to time of infection, 0) For pre-infection treatment, pA4 -antiRSV/(8490-8509) (10 μM final concentration), was added at t-4, and t0 in addition to […]; t+14 and t+26. Virus harvested from control and oligonucleotide-treated 9HTE cells was measured by infecting CV-1 cells and subsequently counting viral plaques. […] On the basis of these experiments, all subsequent experiments were performed with post-infectiontreatments only. Additionally, these experiments indicate the potential use of these compounds as a treatment for active infection as compared to a prophylactic measure.
The human tracheal epithelial cell line, 9HTE, (Gruenert et al., 1988) and CV-1 cells, (American Type Culture Collection, Rockville, Md., CCI#70) a green monkey kidney cell line which is highly permissive to RSV infection, were cultured in minimal essential medium (MEM) supplemented with 10% (v/v) fetal bovine serum (FBS), 2 mM L-glutamine, 1× MEM amino acids solution, 1× MEM non-essential amino acids solution, 100 U/ml penicillin, 100 μg/ml streptomycin and 0.25 μg/ml amphotericin B ("culture medium") (all reagents from Gibco BRL, Bethesda, Md.). RSV strain A2 (ATCC No. VR1302) was propagated in CV-1 cells. CV-1 monolayers were infected at a multiplicity of infection (M.O.I.) of 0.2 and cultured 46 h in MEM, 2% FBS, 1× Penicillin/Streptomycin (PS) in 5% CO2, 95% O2 at 37° C. Cells were then washed 2 times in MEM and subsequently covered in MEM, 2% FBS, 1× PS, 50 mM HEPES (pH7.5), 100 mM Mg(SO4). After 2 h at 37° C., cells were scraped and sonicated as previously described (Panuska et al., 1995). Aliquots (1 ml each) of cell sonicates were flash frozen in ethanol/dry ice within 20 min of scraping. Several aliquots were then thawed and titered by a plaque assay on CV-1 cells as previously described (Cirino et al., 1993). The range of virus yield from this procedure was 2 to 7×10^6 plaque forming units (pfu) per ml.
Infection of 9HTE cells was performed as previously described (Merolla et al., 1994). Briefly, confluent monolayers were exposed to RSV diluted in MEM, 2% FBS, for 2 h at 37° C. in 5% CO2, 95% O2. After exposure, cells were washed two times with serum-free MEM media and then fresh culture media (with 10% FBS) was added. Oligonucleotides were either added 4 h prior to infection (t-4) or immediately after infection (t+2) and also at t+14 and t+26. Cells were harvested for plaque assays at 36 h post-infection to determine viral titers as previously described (Cirino et al., 1993). Cells were washed twice to remove any residual antisense and were then scraped in MEM containing 2% FBS, 1× PS. 9HTE cells were sonicated for 20 sec on ice then the extracts were serially diluted and transferred to a confluent monolayer of CV-1 for quantitation of infectious viral particles. […]

[2] = test system: RSV strain A2; test: CPE inhibition assay in HEp-2 cells; format: cell-based, Respiratory syncytial virus; conditions: Table 10, CPE, HEp2; for EC50: read-out: EC50
Procedure: The CPE inhibition assay used in this study was performed as described by Sidwell and Huffman (Sidwell et al., 1971, Appl. Microbiol. 22:7979-7801) with slight modifications. Varying concentrations of test compounds were added to each plate containing near confluent cell monolayers (1×10^5 cells/well) followed immediately by the addition of virus at a multiplicity of infection (MOI)=0.01, and then incubated at 37° C. […] All compounds were assayed for virus inhibition in quadruplicate and for cytotoxicity in duplicate. For each compound, two wells were set aside as uninfected, untreated cell controls per test and four wells per test received virus only and represented controls for virus replication. […] For all CPE-based assays, the 50% effective concentration (EC50) was calculated by regression analysis using the means of the CPE ratings at each concentration of compound.

[3] = test system: Hep-2 Cells; test: Cytotoxicity by morphological changes in HEp-2 cells (CPE inhibition assay); format: cell-based, human; conditions: Table 10, CPE, HEp2
Procedure: (§1) Embryonic African green monkey kidney cells (MA-104) were obtained from BioWhittaker, Inc. (Walkersville, Md.). HEp-2 cells were propagated from a human epidermoid carcinoma of the larynx (American Type Culture Collection, ATCC; Rockville, Md.). The cells were grown in minimal essential medium. (MEM, Gibco-BRL, Gaitherburg, Md.) supplemented with 0.1% NaHCO3 and 10% fetal bovine serum (FBS, Hyclone Laboratories, Logan Utah.). When performing antiviral assays, serum was reduced to 2% and 50 μg/ml gentamicin (Sigma Chemical Company, St. Louis, Mo.) was added to the medium.
Morphological changes due to compound cytotoxicity were graded on a scale of 0-5; grade 5 was defined as 100% cytotoxicity. The 50% cytotoxic dose (IC50 was calculated by regression analysis. A selective index (S.I.) was calculated for each compound [S.I.=(IC50)/(EC50 ].

[4] = test system: RSV strain A2; test: Neutral red uptake assay of CPE inhibition in HEp-2 cells; format: cell-based, Respiratory syncytial virus; conditions: Table 11, neutral red, HEp2; for EC50: read-out: EC50
Procedure: (§2) This assay was performed by a modified method as described by Cavenaugh et al. (Cavenaugh et al. 1990, Invest. New Drugs 8:347-354). Briefly, medium was removed from each well of a plate scored for CPE from a CPE inhibition assay, 0.2 ml of neutral red (0.034% in PSS) was added to each of the wells of that plate and the plate incubated for 2 hr at 37° C. in the dark. The neutral red solution was removed from the wells and the wells rinsed twice with PBS (pH 7.4). Equal volumes (0.1 ml) of absolute ethanol and Sorenson citrate buffer (0.1 M sodium citrate, 0.1 M HCI, pH 4.2) were mixed together and added to each well. Plates were incubated in the dark for 30 min. at room temperature to solubilize the dye. The plates were then gently mixed on a 96-well plate adapted vortexer for 1 min. Absorbances at 540 nm and 450 nm were read with a microplate reader (Bio-Tek EL 1309; Bio-Tek Instruments, Inc. Winooski, Vt.). Absorbance values were expressed as percents of untreated controls and EC50 and IC50 values were calculated by regression analysis.

[5] = test system: Hep-2 Cells; test: Neutral red uptake assay of cytotoxicity in HEp-2 cells; format: cell-based, human; conditions: Table 11, neutral red, HEp2
Procedure: as §1, §2

[6] = 6.6 μM oligonucleotide/treatment at t+2, t+14, t+26 h
[7] = 9.9 μM oligonucleotide/treatment at t+2, t+14, t+26 h
[8] = 3.3 μM oligonucleotide/treatment at t+2, t+14, t+26 h
[9] = q.d. 1 day (added along with virus, never replenished)

## A2'p(A2'p)3 -[(Bu)p]2 -(5'aat ggg atc cat ttt gtc c3'-3'c5') [A4-antiRSV3'-3'C/(8490-8509)]
[1]; [6]
  % Inhibition of RSV replication: 20%
[1]; [7]
  % Inhibition of RSV replication: 28.3%

## spA2'p(A2'p)3 -[(Bu)p]2 -(5'ata gtg tgt tct ttt gat t3'-3'a5') [spA4-antiRSV3'-'3A/(8251-8270)]
[1]; [8]
  % Inhibition of RSV replication: 86.7%
[1]; [6]
  % Inhibition of RSV replication: 92%

## sp(5'A2')4 BupBupd(GsAsTsAGAAATAGAAAsGsCsA) (antisense GATAGAAATAGAAAGCA; chemistry not fully specified) [MP426, 2-5A-antisense control with scrambled antisense domain of MP351]
[2]; B.I.D. 2 days
  SI: > 32
[2]; B.I.D. 3 days
  SI: 16
  EC50: 0.2 µM
[2]; B.I.D. 4 days
  SI: 3.2
[2]; [9]
  EC50: > 3.2 µM
[2]; q.d. 3 days
  SI: > 1
  EC50: 3.2 µM
[2]; q.d. 4 days
  SI: > 3.2
[3]; B.I.D. 2 days
  IC50: > 3.2 µM
[3]; B.I.D. 3 days
  IC50: 3.2 µM
[3]; B.I.D. 4 days
  IC50: 3.2 µM
[3]; [9]
  IC50: > 3.2 µM
[3]; q.d. 3 days
  IC50: > 3.2 µM
[3]; q.d. 4 days
  IC50: > 3.2 µM
[4]; B.I.D. 2 days
  SI: > 11
  EC50: 0.3 µM
[4]; B.I.D. 3 days
  SI: 3.2
[4]; B.I.D. 4 days
  EC50: > 3.2 µM
[4]; [9]
  EC50: > 3.2 µM
[4]; q.d. 3 days
  EC50: > 3.2 µM
[4]; q.d. 4 days
  EC50: > 3.2 µM
[5]; B.I.D. 2 days
  IC50: > 3.2 µM
[5]; B.I.D. 3 days
  IC50: 3.2 µM
[5]; B.I.D. 4 days
  IC50: 3.2 µM
[5]; [9]
  IC50: > 3.2 µM
[5]; q.d. 3 days
  IC50: 3.2 µM
[5]; q.d. 4 days
  IC50: 3.2 µM

## pA2'p(A2'p)3 -[(Bu)p]2 -(3'ccc tgt ttt acc tag ggt aa5') [pA4-3'antiRSV5'/(8490-8509)]
[1]; [7]
  % Inhibition of RSV replication: 69%

## pA2'p(A2'p)3 -[(Bu)p]2 -(5'aat ggg atc cat ttt gtc cc3') [pA4-antiRSV/(8490-8509)]
[1]; [8]
  % Inhibition of RSV replication: 3%
[1]; [6]
  % Inhibition of RSV replication: 38.8%
[1]; [7]
  % Inhibition of RSV replication: 64.8%
[1]; post-infection treatment, 10 μM at t+2, t+14, t+26
  inhibition of RSV replication: about 70%
[1]; pre-/post-infection treatment, 10 μM at t-4, t0 and after infection
  inhibition of RSV replication: about 70%

## spA2'p(A2'p)3 -[(Bu)p]2 -(5'ctc tga gaa aga gat aa3'-3'c5') [spA4-antiRSV3'-3'C/(8561-8578)]
[1]; [8]
  % Inhibition of RSV replication: 57%

## spA2'p(A2'p)3 -[(Bu)p]2 -(5'gat tga aat ata gtg tgt3'-3't5') [spA4-antiRSV3'-3'T/(8261-8279)]
[1]; [8]
  % Inhibition of RSV replication: 78%
[1]; [6]
  % Inhibition of RSV replication: 87%
[1]; [7]
  % Inhibition of RSV replication: 87%

## spA2'p(A2'p)3 -[(Bu)p]2 -(5'gat aag gac cat tga ata t3'-3'g5') [spA4-antiRSV3'-3'G/(8599-8618)]
[1]; [8]
  % Inhibition of RSV replication: 43% and 44%

## pA2'p(A2'p)3 -[(Bu)p]2 -(5'aat ggg atc cat ttt gtc c3'-3'c5') [pA4-antiRSV3'-3'C/(8490-8509)]
[1]; [8]
  % Inhibition of RSV replication: 2%
[1]; [6]
  % Inhibition of RSV replication: 64.3% and 38.8%
[1]; [7]
  % Inhibition of RSV replication: 64.8% and 74%

## spA2'p(A2'p)3 -[(Bu)p]2 -(5'aat ggg atc cat ttt gtc cc3') [spA4-antiRSV/(8490-8509)]
[1]; [8]
  % Inhibition of RSV replication: 16.5%
[1]; [6]
  % Inhibition of RSV replication: 71%
[1]; [7]
  % Inhibition of RSV replication: 94%
